This note sets out measurements from patent US10092575B2, “Substituted thiophene- and furan-fused azolopyrimidine-5-(6H)-one compounds” (DART NEUROSCIENCE (CAYMAN) LTD., priority 2012, dated 2018).

Where only a bound is given, the exact number is not on record here.

For the first assay, the target named is human PDE1b enzyme (Homo sapiens (Human), UniProt Q01064). Kind of assay: PDE1b inhibitory assay (IMAP TR-FRET).
Settings: not given
Background: In TR-FRET formats the signal depends on donor and acceptor labels being close together.
As usually defined, the EC50 is the concentration at which the effect is half-maximal. High values mean a less potent agent, low ones a more potent agent. Compound `O=c1n(Cc2ccc(Cl)cc2)c2sc3c(c2c2ncnn12)CCOC3` [Example 87, 6-(4-Chlorobenzyl)-6,8,10,11-tetrahydro-5H-pyrano[4′,3′:4,5]thieno[3,2-e][1,2,4]triazolo[1,5-c]pyrimidin-5-one] yielded an EC50 of 100 to 1000 nM. For `Cc1ccc(Cn2c(=O)n3ncnc3c3c4c(sc32)COCC4)cc1` [Example 88, 6-(4-Methylbenzyl)-6,8,10,11-tetrahydro-5H-pyrano[4′,3′:4,5]thieno[3,2-e][1,2,4]triazolo[1,5-c]pyrimidin-5-one], the EC50 is 100 to 1000 nM. `O=c1n(Cc2ccc(C(F)(F)F)cc2)c2sc3c(c2c2ncnn12)CCOC3` [Example 89, 6-(4-(Trifluoromethyl)benzyl)-6,8,10,11-tetrahydro-5H-pyrano[4′,3′:4,5]thieno[3,2-e][1,2,4]triazolo[1,5-c]pyrimidin-5-one] yielded an EC50 of 1000 to 10000 nM. Compound `O=c1n(Cc2ccc(Cl)c(Cl)c2)c2sc3c(c2c2ncnn12)CCOC3` [Example 91, 6-(3,4-Dichlorobenzyl)-6,8,10,11-tetrahydro-5H-pyrano[4′,3′:4,5]thieno[3,2-e][1,2,4]triazolo[1,5-c]pyrimidin-5-one] had a concentration giving a half-maximal response (EC50) of 100 to 1000 nM. The same measure, in the same setting: with `O=c1n(Cc2ccc(F)cc2)c2sc3c(c2c2ncnn12)CCOC3` [Example 92, 6-(4-Fluorobenzyl)-6,8,10,11-tetrahydro-5H-pyrano[4′,3′:4,5]thieno[3,2-e][1,2,4]triazolo[1,5-c]pyrimidin-5-one] the figure was 1000 to 10000 nM.

`O=c1n(Cc2ccc(Cl)c(F)c2)c2sc3c(c2c2ncnn12)CCOC3` [Example 93, 6-(4-Chloro-3-fluorobenzyl)-6,8,10,11-tetrahydro-5H-pyrano[4′,3′:4,5]thieno[3,2-e][1,2,4]triazolo[1,5-c]pyrimidin-5-one] came in with a concentration for a half-maximal effect (EC50) of 100 to 1000 nM. `O=c1n(Cc2ccc(Cl)cc2F)c2sc3c(c2c2ncnn12)CCOC3` [Example 94, 6-(4-Chloro-2-fluorobenzyl)-6,8,10,11-tetrahydro-5H-pyrano[4′,3′:4,5]thieno[3,2-e][1,2,4]triazolo[1,5-c]pyrimidin-5-one] yielded an EC50 of 100 to 1000 nM. With `COc1ccc(Cn2c(=O)n3ncnc3c3c4c(sc32)COCC4)cc1F` [Example 95, 6-(3-Fluoro-4-methoxybenzyl)-6,8,10,11-tetrahydro-5H-pyrano[4′,3′:4,5]thieno[3,2-e][1,2,4]triazolo[1,5-c]pyrimidin-5-one], the EC50 was 100 to 1000 nM.

Compound `O=c1n(Cc2ccc(OC(F)(F)F)cc2)c2sc3c(c2c2ncnn12)CCOC3` [Example 96, 6-(4-(Trifluoromethoxy)benzyl)-6,8,10,11-tetrahydro-5H-pyrano[4′,3′:4,5]thieno[3,2-e][1,2,4]triazolo[1,5-c]pyrimidin-5-one] had a 50% effective concentration (EC50) of 1000 to 10000 nM. With `CCOc1ccc(Cn2c(=O)n3ncnc3c3c4c(sc32)COCC4)cc1` [Example 97, 6-(4-Ethoxybenzyl)-6,8,10,11-tetrahydro-5H-pyrano[4′,3′:4,5]thieno[3,2-e][1,2,4]triazolo[1,5-c]pyrimidin-5-one], the EC50 was in the range of 1000 to 10000 nM. On the same count and under the same terms, with `O=c1n(Cc2ccc(Cl)cc2)c2sc3c(c2c2ncnn12)CCNC3` [Example 99, 6-(4-Chlorobenzyl)-8,9,10,11-tetrahydropyrido[4′,3′:4,5]thieno[3,2-e][1,2,4]triazolo[1,5-c]pyrimidin-5(6H)-one] the figure was 1000 to 10000 nM.

The same assay, now with this note: negative log of half-maximal molar inhibitory concentration; 200 nM FAM-cAMP; reported as ranges.
As for `COc1ccc(Cn2c(=O)n3ncnc3c3c4c(sc32)COCC4)cc1` [Example 90, 6-(4-Methoxybenzyl)-6,8,10,11-tetrahydro-5H-pyrano[4′,3′:4,5]thieno[3,2-e][1,2,4]triazolo[1,5-c]pyrimidin-5-one], the “PDE1b (pEC50)” value is reported as over 7. For `COc1c(F)cc(Cn2c(=O)n3ncnc3c3c4c(sc32)COCC4)cc1F` [Example 98, 6-(3,5-Difluoro-4-methoxybenzyl)-6,8,10,11-tetrahydro-5H-pyrano[4′,3′:4,5]thieno[3,2-e][1,2,4]triazolo[1,5-c]pyrimidin-5-one], the “PDE1b (pEC50)” value is listed as under 5.
